{"source": "paper PMC10007777", "about": "“Glycyrrhizic acid inhibits myeloid differentiation of hematopoietic stem cells by binding S100 calcium binding protein A8 to improve cognition in aged mice” (Immunity & Ageing : I & A, 2023)", "target": "T1, S100A8 protein (S100 calcium binding protein A8; MRP-8) (Mus musculus, UniProt P27005)", "T1 construct": "amine-coupled to CM5 (COOH) chip", "T1 sequence (P27005 2-89)": "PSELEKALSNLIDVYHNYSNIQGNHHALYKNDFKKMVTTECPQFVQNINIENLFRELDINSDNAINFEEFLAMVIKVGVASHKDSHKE", "assay": "SPR (BIAcore […]), S100A8 immobilized", "conditions": "20 mM Tris-HCl, 150 mM NaCl, 1 mM TCEP, pH 7.2, 25 C; GA 0-500 uM", "data": [{"smiles": "CC1(C)[C@@H](O[C@H]2O[C@H](C(=O)O)[C@@H](O)[C@H](O)[C@H]2O[C@@H]2O[C@H](C(=O)O)[C@@H](O)[C@H](O)[C@H]2O)CC[C@]2(C)[C@H]3C(=O)C=C4[C@@H]5C[C@@](C)(C(=O)O)CC[C@]5(C)CC[C@@]4(C)[C@]3(C)CC[C@@H]12", "note": "[GA, Glycyrrhizic acid]", "values": [{"measurement": "binding (SPR)", "result": "The experimental results show binding between GA and S100A8 protein (Fig. 5E)."}]}]}
